Measured values from patent US20080103191A1, “ENTACAPONE-DERIVATIVES” (priority 2006, published 2008).
≈ marks a conversion by molar mass, not a printed value. Where two headings read alike, the source gives them in different places.

Assays:
[1] = Chemical hydrolysis stability at pH 1 and pH 7.4 (HPLC); type: physicochemical; conditions: 37° C., over 12 h
Protocol: The stability of compounds of the present invention is tested at pH 1 and at pH 7.4. The testing is carried out by the following HPLC method:
Chemical hydrolysis rates t1/2 [h] of selected compounds of formula I are determined in 0.1 N HCl (pH 1) and PBS buffer (pH 7.4) solution. Solutions are prepared by dissolving an appropriate amount of compound in 0.1 N HCl and PBS buffer solution. Samples were withdrawn at designated time intervals and analysed for remaining prodrug by HPLC at 37° C. over 12 h.
Reversed phase gradient HPLC method, column YMC Pro C8, 50 mm×4.0 mm, 3 μm, Eluent A: Water:trifluoroacetic acid (100:0.5 (v/v)), Eluent B: Acetonitrile:trifluoroacetic:acid (100:0.5 (v/v)). Column temperature 30° C., Flow rate 3.0 mL/min, Detection wavelength: 220 nm
For evaluation, the peak area of the respective compound from the first injection is defined as 100% relative concentration. The peak areas of all other subsequent injections are calculated in percentage relating to this standard. (relative concentration in %). The relative concentrations are plotted in a logarithmic scale (ln) against the injection times. Based on the assumption of a first order kinetic, the rate constant and half life times (t1/2 [h]) can be calculated.

[2] = Solubility in 0.1 N HCl, PBS buffer, FaSSIF and FeSSIF; type: physicochemical; conditions: thermodynamic from solid
Protocol: For testing solubility, saturated solutions of selected compounds of formula I are prepared in four different systems and compared to the solubility of entacapone. The solubility is tested in 0.1 N HCl (pH 1), PBS buffer (pH 7.4) and in two simulated gastric fluids, FaSSIF at pH 6.5 (for fasting state) and FeSSIF at pH 5.0 (for fed state) at ambient temperature. The content of the FaSSIF simulated gastric fluid is as follows:
The solubility testing is carried out by the following method: An excess amount of each compound is added to a 0.1 N HCl, PBS buffer, FeSSIF and FaSSIF. The suspensions are shaken for 10 min. After centrifugation the concentration is determined by HPLC. Reversed phase gradient HPLC method, column YMC Pro C8, 50 mm×4.0 mm, 3 μm, Eluent A: Water:trifluoroacetic acid (100:0.5 (v/v)), Eluent B: Acetonitrile:trifluoroacetic:acid (100:0.5 (v/v)). Column temperature 30° C., Flow rate 3.0 mL/min, Detection wavelength: 220 nm

[3] = Log D (pH 7.4) by isocratic HPLC; type: physicochemical; conditions: YMC Pro C18 column, phosphate buffer pH 7.4/acetonitrile 45/55
Protocol: LogD is an indicator for absorption and lipophilicity for ionized compounds under defined pH conditions and is measured by applying an isocratic HPLC Method at pH 7.4.
The log D has been tested at pH 7.4. The testing has been carried out by the following method: Isocratic HPLC method: Column YMC Pro C18, 150 mm×4.0 mm, 3 μm, Eluent Phosphate buffer pH 7.4/acetonitrile (45/55, (v/v)), Runtime 15-60 min, Flow rate 1.2 ml/min, Detection wavelength: 220 nm

[4] = Permeability in Caco-2 cells, apical to basolateral; type: in vitro ADME; set-up: dose or concentration left out as unconfirmed; conditions: human; 21d Caco-2 monolayer, apical pH 6.5 to basolateral pH 7.4, 60 minutes
Description: The human adenocarcinoma cell line Caco-2 is used as an in vitro system to predict oral absorption. These cells serve as a model of small bowel tissue and permeation through these cells is a predictor for gastro-intestinal absorption. Further to being a model for oral absorption, permeability in Caco-2 cells may be predictive for the blood brain barrier permeability (P. Garberg et al.; Toxicology in vitro 19 (2005); 299-334). […] The permeability in Caco-2 cells has been tested by the following method:
The permeability of selected compounds of formula I across Caco-2 (21d Caco-2-culture) monolayer in the apical to basolateral direction is investigated. Control substances were ^3H-propranolol and ^3H-mannitol.
The nominal concentration of the test items is […]. The pH value is set to 6.5 for the apical transport medium and to 7.4 for the basolateral medium. Samples are obtained following 60 minutes (120 minutes for control samples) incubation from the basolateral receiver chamber. At sampling time approximately 600 μL of each well are transferred into an eppendorf vial and stored between −12° and −30° C. until HPLC or LC-MS/MS analysis. The control substances are quantified by liquid scintillation.

[5] = Solubility in Labrasol and TPGS/PG formulations; type: physicochemical; conditions: Labrasol, oil or lipid; read-out: Solubility Labrasol ®
Protocol: Selected lipophilic carbonate compounds of formula I with promising Caco-2 permeabilities are formulated with different lipids/lipophilic excipients and/or micelles forming compounds in order to increase their solubilities. The following formulations are prepared by mixing the ingredients mentioned below: • i) Formulations comprising solubilizers in the form of lipides/lipophilic excipients: • ia) Formulation comprising Labrasol® and the selected compounds of Formula I • Labrasol®: • Caprylocaproyl macrogol-8-glyceride (CAS No. 85536-07-8 and 84963-88-2). This is a mixture of mono-, di- and triesters of glycerol and of PEG 400 with medium-chain fatty acids (C8-C10) which is marketed, for example, by Gattefossé under the mark Labrasol®; Labrasol® has an HLB value (hydrophil-lipophil-balance, Griffin, W. C.: Classification of surface active agents by HLB, J. Soc. Cosmet. 1, 1949) of 14 and has the following composition by weight:
• ib) Formulation comprising NanoSolve® 5401 (Lipoid GmbH, Germany) and the selected compounds of formula I • ic) Formulation comprising TPGS/PG in a weight ratio of 25% by weight of TPGS to 75% by weight of PG and the selected compounds of formula I. • PG: propylene glycol • TPGS: Vitamin E TPGS NF (d-α-tocopheryl polyethylene glycol 1000 succinate) which is marketed, for example, by Eastman Chemical Co • ii) Formulation comprising a micelles forming agent: • iia) Aqueous formulation comprising 30% by weight of Cremophor® RH 40 (relating to the weight of the aqueous phase) in water and the selected compounds of formula I • Cremophor® RH 40: • Generic names: • Polyoxyl 40 Hydrogenated Castor Oil (USP/NF). • Macrogol-Glycerolhydroxystearat (DAB). • Polyoxyethylenglyceroltrihydroxystearat (DAC). • Cremophor RH 40 is a non-ionic solubilizer and emulsifying agent obtained by reacting 45 moles of ethylene oxide with 1 mole of hydrogenated castor oil. The main constituent of Cremophor RH 40 is glycerol polyethylene glycol oxystearate, which, together with fatty acid glycerol polyglycol esters, forms the hydrophobic part of the product. The hydrophilic part consists of polyethylene glycols and glycerol ethoxylate. Cremophor RH 40 is a white to yellowish thin paste at 20° C. The HLB value lies between 14 and 16. Cremophor RH 40 is marketed by BASF AG.
The solubility of selected compounds of formula I in these formulations is measured and compared to the solubility of the compounds in 0.1N HCl (pH 1.0), PBS buffer (pH 7.4), and two simulated gastric fluids (i.e., FaSSIF (pH 6.5) simulating fasting sate and FeSSIF (pH 5.0) simulating fed state) (see above for details).

[6] = Storage stability at ambient temperature; type: physicochemical; conditions: glass bottles, more than two years, reanalysis by HPLC/MS and NMR

t1/2 at pH 1 ([1]; 0.1 N HCl): stable
t1/2 at pH 7.4 ([1]; PBS buffer): stable
solubility at 10 min ([2]; 0.1 N HCl, pH 1, simulated gastric fluid, Table 11, maximum solubility, read-out: Solubility 0.1N HCl pH 1.0): 50 µg/mL (≈ 0.164 mM)
solubility at 10 min ([2]; 0.1 N HCl, pH 1, simulated gastric fluid, ambient temperature, shaken 10 min, read-out: Solubility 0.1N HCl Ph 1.0): 50 µg/mL (≈ 0.164 mM)
solubility at 10 min ([2]; FaSSIF, pH 6.5, fassif, Table 11, read-out: Solubility FaSSIF pH 6.5): 150 µg/mL (≈ 0.491 mM)
solubility at 10 min ([2]; FaSSIF, pH 6.5, fassif, fasting state fluid, ambient temperature, read-out: Solubility FaSSIF Ph 6.5): 150 µg/mL (≈ 0.491 mM)
solubility at 10 min ([2]; FeSSIF, pH 5, fessif, Table 11, read-out: Solubility FeSSIF pH 5.0): 990 µg/mL (≈ 3.24 mM)
solubility at 10 min ([2]; FeSSIF, pH 5, fessif, fed state fluid, ambient temperature, read-out: Solubility FeSSIF Ph 5.0): 990 µg/mL (≈ 3.24 mM)
solubility at 10 min ([2]; PBS buffer, pH 7.4, aqueous buffer, Table 11, read-out: Solubility PBS pH 7.4): 1350 µg/mL (≈ 4.42 mM)
solubility at 10 min ([2]; PBS buffer, pH 7.4, aqueous buffer, ambient temperature, read-out: Solubility PBS Ph 7.4): 1350 µg/mL (≈ 4.42 mM)
chromatographic logD [3]: 0.5
Papp A→B at 60 min [4]: 17 ×10⁻⁶ cm/s
solubility [5]: 23000 µg/mL (≈ 75.3 mM)
degradation on storage [6]: without degradation
SMILES: CCN(CC)C(=O)/C(C#N)=C/c1cc(O)c(O)c([N+](=O)[O-])c1 [entacapone, (E)-N,N-diethyl-2-cyano-3-(3,4-dihydroxy-5-nitrophenyl)acrylamide]
